Assay results taken from patent US6566373B2, “Protease inhibitors” (SmithKline Beecham Corporation, priority 1997, dated 2003).
Where a name gives a salt, the structure may show the parent alone.

Assays:
cathepsin K = target: T1, cathepsin K (Homo sapiens, UniProt P43235); test: Cathepsin K inhibition (progress curve method, fluorogenic substrate Cbz-Phe-Arg-AMC); format: biochemical; conditions: human recombinant enzyme, 100 mM Na acetate pH 5.5
T1 sequence (P43235 115-329): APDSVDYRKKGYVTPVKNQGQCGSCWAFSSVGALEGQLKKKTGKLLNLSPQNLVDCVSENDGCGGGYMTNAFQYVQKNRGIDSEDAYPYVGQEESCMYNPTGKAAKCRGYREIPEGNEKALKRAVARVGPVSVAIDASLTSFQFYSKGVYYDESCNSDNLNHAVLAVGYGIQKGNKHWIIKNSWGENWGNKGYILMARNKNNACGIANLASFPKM
Experimental: Determination of Cathepsin K Proteolytic Catalytic Activity
All assays for cathepsin K were carried out with human recombinant enzyme. Standard assay conditions for the determination of kinetic constants used a fluorogenic peptide substrate, typically Cbz-Phe-Arg-AMC, and were determined in 100 mM Na acetate at pH 5.5 containing 20 mM cysteine and 5 mM EDTA. Stock substrate solutions were prepared at concentrations of 10 or 20 mM in DMSO with 20 μM final substrate concentration in the assays. All assays contained 10% DMSO. […] All assays were conducted at ambient temperature. Product fluorescence (excitation at 360 nm; emission at 460 nm) was monitored with a Perceptive Biosystems Cytofluor II fluorescent plate reader. […]
Potential inhibitors were evaluated using the progress curve method. […] For those compounds whose progress curves were linear, apparent inhibition constants (Ki,app) were calculated according to equation 1 (Brandt et al., Biochemitsry, 1989, 28, 140): […]
[AMC]=vSSt+(v0−vSS)[1−exp (−kobst)]/kobs (2) where [AMC] is the concentration of product formed over time t, v0 is the initial reaction velocity, and vSS is the final steady state rate. Values for kobs were then analyzed as a linear function of inhibitor concentration to generate an apparent second order rate constant (kobs/inhibitor concentration or kobs/[I]) describing the time-dependent inhibition. […]

SMILES: CC(C)C[C@H](NS(=O)(=O)c1cccc2cccnc12)C(=O)NC1COCC1=O (mixture of isomers) (as salt: HCl) [Example 7, 4-(R,S)-Amino-N-[(8-quinolinesulfonyl)-S-leucine]-tetrahydrofuran-3-one]
- melting point: 98 °C

SMILES: CC(C)C[C@H](NS(=O)(=O)c1cccc2cccnc12)C(=O)NC1COCC1=O (mixture of isomers) [Example 7, 4-(R,S)-Amino-N-[(8-quinolinesulfonyl)-S-leucine]-tetrahydrofuran-3-one]
- Ki (cathepsin K): > 10 µM
